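Exposure lasted 48 hours, with cells grown in 96-well plates and compounds tested at five concentrations. GI50 = concentration required for 50% inhibition of growth.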 Activity calls are given as the source filed them. No stated cut-off is given here; in the data, active = GI50 up to about 1.1 µM and inactive = higher.
Key:
Experiment in all cases: inhibition of tumour cell growth, NCI panel, 48 h
HCT-116 = system: HCT-116
HOP-62 = system: HOP-62
SW-620 = system: SW-620
M14 = system: M14
SN12C = system: SN12C
HT-29 = system: HT-29
EKVX = system: EKVX
U-251 = system: U-251
ACHN = system: ACHN
SNB-19 = system: SNB-19
PC-3 = system: PC-3
TK-10 = system: TK-10
Malme-3M = system: Malme-3M
OVCAR-8 = system: OVCAR-8
RPMI-8226 = system: RPMI-8226
RXF 393 = system: RXF 393
UACC-257 = system: UACC-257
MOLT-4 = system: MOLT-4
CAKI-1 = system: CAKI-1
UO-31 = system: UO-31

Measured: GI50

c1ccc(NN(Cc2cnccn2)c2ccccc2)cc1
inactive: HCT-116 60.5 µM | HOP-62 > 100 µM | SW-620 > 100 µM | M14 90.2 µM | SN12C 63.8 µM | HT-29 97.3 µM | EKVX 75.5 µM | U-251 65 µM | ACHN > 100 µM | SNB-19 > 100 µM | PC-3 65.8 µM | TK-10 > 100 µM | Malme-3M > 100 µM | OVCAR-8 66.7 µM | RPMI-8226 55.7 µM | RXF 393 > 100 µM | UACC-257 51.6 µM | MOLT-4 42.3 µM | CAKI-1 > 100 µM

Nn1c(CCCCCCCCc2nnc(COc3c(O)ccc4ccccc34)n2N)nnc1COc1c(O)ccc2ccccc12
inactive: HCT-116 49.5 µM | SW-620 > 100 µM | M14 > 100 µM | SN12C > 100 µM | HT-29 > 100 µM | EKVX > 100 µM | UO-31 > 100 µM | U-251 > 100 µM | ACHN > 100 µM | SNB-19 > 100 µM | PC-3 > 100 µM | TK-10 > 100 µM | Malme-3M > 100 µM | RPMI-8226 63.1 µM | RXF 393 84.3 µM | UACC-257 > 100 µM | MOLT-4 > 100 µM | CAKI-1 27.2 µM

O=C1/C(=C/c2ccco2)N=C(c2ccccc2)N1c1ccc(S(=O)(=O)Nc2nccs2)cc1
inactive: HCT-116 > 100 µM | HOP-62 > 100 µM | SW-620 > 100 µM | M14 > 100 µM | SN12C > 100 µM | HT-29 > 100 µM | EKVX 33.2 µM | UO-31 57.1 µM | U-251 71.9 µM | ACHN 74.6 µM | PC-3 86.3 µM | TK-10 > 100 µM | Malme-3M > 100 µM | OVCAR-8 65.5 µM | RPMI-8226 41.7 µM | RXF 393 69.5 µM | UACC-257 27.6 µM | MOLT-4 43.4 µM | CAKI-1 > 100 µM

Clc1ccc2nc3[nH]nc(Cl)c3nc2c1
inactive: HCT-116 42.9 µM | HOP-62 53.5 µM | SW-620 72.6 µM | M14 70.3 µM | SN12C 38.5 µM | HT-29 59.3 µM | EKVX 16.7 µM | UO-31 22.8 µM | U-251 60.7 µM | ACHN 52.8 µM | SNB-19 45.6 µM | PC-3 34.6 µM | TK-10 56.5 µM | OVCAR-8 71.3 µM | RPMI-8226 47.4 µM | RXF 393 35 µM | UACC-257 66.8 µM | MOLT-4 30.5 µM | CAKI-1 49.1 µM

O=[N+]([O-])c1ccc2c(c1)c(OCc1ccccc1)nn2Cc1ccccc1
inactive: HOP-62 36.3 µM | SW-620 > 100 µM | M14 > 100 µM | SN12C > 100 µM | HT-29 > 100 µM | UO-31 > 100 µM | ACHN 43.8 µM | SNB-19 > 100 µM | PC-3 63.1 µM | TK-10 62.1 µM | Malme-3M 78.5 µM | OVCAR-8 > 100 µM | RPMI-8226 > 100 µM | RXF 393 34.2 µM | UACC-257 > 100 µM | MOLT-4 57 µM | CAKI-1 > 100 µM

CSc1c(C#N)c(=O)n(N)c2c1c(C)nn2-c1ccccc1
inactive: HCT-116 23.7 µM | SW-620 35.9 µM | M14 35.7 µM | SN12C 34.4 µM | HT-29 24.7 µM | EKVX 26.7 µM | UO-31 18.5 µM | U-251 28.1 µM | SNB-19 28.4 µM | PC-3 19.7 µM | TK-10 30.1 µM | Malme-3M 22.4 µM | OVCAR-8 20.8 µM | RPMI-8226 21.9 µM | RXF 393 18.7 µM | UACC-257 22 µM | MOLT-4 27.5 µM | CAKI-1 19.9 µM

CCCCCCCCCCCCCCCCC(=O)NCC(=O)NCC(=O)NC(Cc1ccccc1)C(=O)Oc1ccc([N+](=O)[O-])cc1 (centres undefined)
inactive: HCT-116 18.6 µM | HOP-62 22 µM | SW-620 19.4 µM | M14 21.4 µM | SN12C 19.7 µM | HT-29 29.3 µM | EKVX 37.8 µM | UO-31 67.9 µM | U-251 18.4 µM | ACHN > 100 µM | SNB-19 > 10 µM | PC-3 31.5 µM | TK-10 71 µM | OVCAR-8 19.2 µM | RPMI-8226 21 µM | RXF 393 23.4 µM | UACC-257 23.9 µM | MOLT-4 16.4 µM | CAKI-1 17.2 µM

Cc1ccc2c(O)c3c(cc2c1)C(=O)c1c2c(cc(O)c1C3=O)C1(C)OC(O2)C(O)C(N(C)C)C1O (centres undefined)
inactive: M14 1.56 µM | SN12C 1.37 µM | EKVX 1.32 µM | UO-31 1.27 µM | U-251 1.16 µM | SNB-19 1.17 µM | TK-10 1.69 µM | OVCAR-8 1.19 µM | RXF 393 1.21 µM | UACC-257 1.51 µM
active: HCT-116 0.296 µM | HOP-62 1.01 µM | SW-620 1.02 µM | HT-29 0.495 µM | ACHN 0.605 µM | PC-3 1.05 µM | RPMI-8226 0.29 µM | MOLT-4 0.124 µM | CAKI-1 0.794 µM

CCOC(=O)c1c(NC(=O)OC)c(C#N)c2n1CCCCC2
inactive: HCT-116 > 100 µM | HOP-62 > 100 µM | SW-620 > 100 µM | M14 > 100 µM | HT-29 > 100 µM | EKVX > 100 µM | UO-31 > 100 µM | U-251 > 100 µM | ACHN > 100 µM | SNB-19 > 100 µM | PC-3 > 100 µM | TK-10 > 100 µM | OVCAR-8 > 100 µM | RPMI-8226 > 100 µM | RXF 393 > 100 µM | UACC-257 > 100 µM | MOLT-4 45.1 µM | CAKI-1 > 100 µM

CCNC1=C(NC(=O)CC)C(=O)c2ccccc2C1=O
inactive: HCT-116 36.7 µM | HOP-62 > 100 µM | SW-620 60.4 µM | M14 31.7 µM | SN12C 73.3 µM | HT-29 34.8 µM | EKVX > 100 µM | U-251 > 100 µM | ACHN > 100 µM | SNB-19 > 100 µM | PC-3 42.6 µM | TK-10 > 100 µM | Malme-3M 22.9 µM | OVCAR-8 79.1 µM | RPMI-8226 > 100 µM | RXF 393 48.1 µM | UACC-257 30.2 µM | MOLT-4 > 100 µM

O=S(=O)(c1ccc(NC(=S)N/N=C/c2ccccc2O)cc1)N1CCCCC1
active: HOP-62 0.114 µM | SW-620 < 0.01 µM | M14 0.0771 µM | ACHN < 0.01 µM | SNB-19 0.879 µM | PC-3 0.191 µM | TK-10 < 0.0457 µM | Malme-3M 0.181 µM | RPMI-8226 0.214 µM | UACC-257 0.735 µM
inactive: HT-29 7.73 µM | EKVX 1.29 µM | UO-31 1.29 µM | RXF 393 56.8 µM

Cc1ccccc1N/N=C1\C(=O)Nc2ccccc21
inactive: HCT-116 > 100 µM | HOP-62 > 100 µM | SW-620 > 100 µM | M14 > 100 µM | SN12C 88.9 µM | HT-29 > 100 µM | EKVX > 100 µM | UO-31 > 100 µM | U-251 > 100 µM | ACHN > 100 µM | SNB-19 > 100 µM | PC-3 > 100 µM | TK-10 > 100 µM | OVCAR-8 > 100 µM | RPMI-8226 > 100 µM | RXF 393 > 100 µM | UACC-257 > 100 µM | MOLT-4 > 100 µM | CAKI-1 > 100 µM

COc1ccc2c(c1)nc1n2C(c2c(F)cccc2F)SC1 (centres undefined)
inactive: HCT-116 31.5 µM | HOP-62 76.4 µM | SW-620 60.5 µM | M14 56.9 µM | SN12C > 100 µM | HT-29 47.3 µM | EKVX 36.1 µM | UO-31 56 µM | U-251 55.7 µM | ACHN > 100 µM | SNB-19 21.4 µM | PC-3 27.8 µM | TK-10 94.6 µM | OVCAR-8 83.8 µM | RPMI-8226 30.6 µM | RXF 393 53.7 µM | UACC-257 45.7 µM | MOLT-4 35.2 µM | CAKI-1 > 100 µM

O=C(CCCn1ccnc1[N+](=O)[O-])NCCn1cncc1[N+](=O)[O-]
inactive: HCT-116 > 100 µM | HOP-62 > 100 µM | SW-620 > 100 µM | M14 > 100 µM | SN12C > 100 µM | HT-29 > 100 µM | EKVX > 100 µM | UO-31 > 100 µM | U-251 > 100 µM | ACHN > 100 µM | PC-3 > 100 µM | TK-10 > 100 µM | Malme-3M > 100 µM | OVCAR-8 > 100 µM | RPMI-8226 > 100 µM | RXF 393 > 100 µM | UACC-257 > 100 µM | MOLT-4 > 100 µM | CAKI-1 > 100 µM

COc1c(O)cc(C(=O)O[C@@H]2Cc3c(O)cc(O)cc3O[C@@H]2c2cc(O)c(O)c(O)c2)cc1O
inactive: HCT-116 17.9 µM | HOP-62 30.7 µM | SW-620 28.2 µM | M14 59.4 µM | SN12C 19.7 µM | HT-29 18.2 µM | EKVX 24.8 µM | UO-31 23 µM | ACHN 30.6 µM | SNB-19 21.4 µM | PC-3 68.1 µM | TK-10 > 100 µM | Malme-3M > 100 µM | OVCAR-8 23.3 µM | RPMI-8226 24.3 µM | RXF 393 18.4 µM | UACC-257 53.3 µM | MOLT-4 24.2 µM | CAKI-1 > 100 µM

— ChEMBL document CHEMBL1201862, “PubChem BioAssay data set” (2004)
